Read-outs that look alike come from different tables or passages of the source.
Assays:
ICAM-1 = assay: Effect on the expression of ICAM-1 in human cultured umbilical cord endothelial cells (TNF-stimulated, ELISA); assay type: cell-based; settings: 1 ng/ml TNF, expression with TNF = 100%, without TNF = 0%, read-out: IC50 (50% inhibitory concentration of ICAM-1 expression)
Procedure: Effect on the Expression of ICAM-1 in Human Cultured Umbilical Cord Endothelial Cells
Examination was made on the effect on the expression of ICAM-1 which is one of adhesion molecules expressed on the surfaces of cultured endothelia cells. The endotheliall cells were suspended in an MCDB131 medium containing 10% of fetal calf serum and pipetted into a 96-well culture plate (10,000 cells/well). After culturing at 37° C. in the presence of 5% of carbon dioxide for 2 days, 1 ng/ml of a tumor necrosis factor (TNF) and a test compound were added to the 96-well culture plate. After culturing at 37° C. in the presence of 5% of carbon dioxide for 4 hours and then washing with a phosphate buffer once, 0.05% of glutaraldehyde was added thereto. Six minutes thereafter, the plate was washed twice and 1 μg/ml of a mouse antihuman ICAM-1 antibody was added thereto. After allowing to stand for 1 hour, it was washed twice and a peroxidase-labeled sheep antimouse immunoglobulin antibody was added thereto. After allowing to stand for 1 hour, it was washed twice and a color developing substrate for peroxidase (o-phenylenediamine) was added thereto. After allowing to stand at room temperature for 10 minutes, a 1 N solution of sulfuric acid was added thereto. Then the absorbance at 490 nm was measured with the use of an absorptiometer for 96-well plate. The value thus obtained was employed as an indication of the ICAM-1 expression.

[1] = test system: Carrageenin-induced Rat Pleurisy; assay: Effect on carrageenin-induced rat pleurisy; assay type: in vivo; settings: total cell count in pleural exudate 5 hours after carrageenin, dose 10 mg/kg orally 30 minutes before carrageenin; for inhibition in vivo at 10 mg/kg: Rattus norvegicus, po, 5 h, read-out: Inhibitory ratio (%); for Inhibitory ratio (%): 10 mg/kg
Procedure: Effect on Carrageenin-induced Rat Pleurisy
200 μl of a carrageenin solution (10 mg/ml in physiological saline) was intrathoracically injected into rats. Five hours thereafter, blood of the animals was collected from the abdominal aorta under etherization so as to induce death from blood loss. The exudate was taken up from the thoracic cavity and weighed with a single-pan balance. Further, the exudate was diluted with Turk's solution and the cells were counted by using a counting chamber. Next the total cell count was calculated by multiplying the cell count by the exudate volume. Thus the inhibitory ratio was calculated by taking the total cell count with the administration of carrageenin as 100% and that with the administration of physiological saline as 0%. Each test compound was suspended in a 0.5% solution of methylcellulose and orally administered at a dose of 5 ml/kg 30 minutes before the injection of carrageenin.

[2] = Homo sapiens, Endothelial cell, 4 h

SMILES | IC50 (ICAM-1; 4 hours) [nM] | inhibition in vivo at 10 mg/kg [1] [%] | Inhibitory ratio (%) [1] [%] | IC50 (ICAM-1; [2]) [nM] | melting point [°C]
O=C(O)CC1C2CCCC1CN(Cc1ccc3c(c1)Nc1nccnc1S3)C2 (stereo not drawn) [Example 15, (syn)-[3-(10H-Pyrazino[2,3-b][1,4]benzothiazin-8-ylmethyl)-3-azabicyclo[3.3.1]non-9-yl]acetic acid] | 2300 | 64 |  |  | 
O=C(O)CC1C2CCCC1CN(Cc1ccc3c(c1)Nc1nccnc1S3)C2 (stereo not drawn) [Example 18, (anti)-[3-(10H-Pyrazino[2,3-b][1,4]benzothiazin-8-ylmethyl)-3-azabicyclo[3.3.1]non-9-yl]acetic acid] | 3500 |  | 67 |  | 
CC1C(C)C2CN(Cc3ccc4c(c3)Nc3nccnc3S4)CC1C2CC(=O)O (stereo not drawn) [Example 23, (+)-(anti)-(6R*,7R*)-[3-(10H-Pyrazino[2,3-b][1,4]benzothiazin-8-ylmethyl)-6,7-dimethyl-3-azabicyclo[3.2.1]oct-8-yl]acetic acid] | 1600 | 52 |  |  | 
CC1C(C)C2CN(Cc3ccc4c(c3)Nc3nccnc3S4)CC1C2CC(=O)O (stereo not drawn) [Example 24, (−)-(anti)-(6R*,7R*)-[3-(10H-Pyrazino[2,3-b][1,4]benzothiazin-8-ylmethyl)-6,7-dimethyl-3-azabicyclo[3.2.1]oct-8-yl]acetic acid] | 4100 |  | 54 |  | 
CC1CC(C)C2CN(Cc3ccc4c(c3)Nc3nccnc3S4)CC1C2C(C)C(=O)O (stereo not drawn) [Example 30, (+)-(anti)-(6R*,8R*)-2-[3-(10H-pyrazino[2,3-b][1,4]benzothiazin-8-ylmethyl)-6,8-dimethyl-3-azabicyclo[3.3.1]non-9-yl]propanoic acid] | 500 |  | 85 |  | 
CC1CC(C)C2CN(Cc3ccc4c(c3)Nc3nccnc3S4)CC1C2C(C)C(=O)O (stereo not drawn) [Example 31, (−)-(anti)-(6R*,8R*)-2-[3-(10H-pyrazino[2,3-b][1,4]benzothiazin-8-ylmethyl)-6,8-dimethyl-3-azabicyclo[3.3.1]non-9-yl]propanoic acid] | 1100 |  | 38 |  | 
O=C(O)C=C1C2CCC1CN(Cc1ccc3c(c1)Nc1nccnc1S3)C2 [Example 70] |  |  |  | 2800 | 268 to 271
O=C(O)CC1C2CCC1CN(Cc1ccc3c(c1)Nc1nccnc1S3)C2 (centres unmarked) [Example 71] |  | 94 |  | 800 | 
O=C(O)C1C2CCC1CN(Cc1ccc3c(c1)Nc1nccnc1S3)C2 (centres unmarked) [Example 73] |  | 74 |  | 600 | 
O=C(O)C1C2CCCC1CN(Cc1ccc3c(c1)Nc1nccnc1S3)C2 (centres unmarked) [Example 74] |  |  |  | 1900 | 272 to 275
CC(C)(C)C1CC2CN(Cc3ccc4c(c3)Nc3nccnc3S4)CC(C1)C2CC(=O)O (centres unmarked) [Example 77] |  |  |  | 2800 | 138 to 140
CC1CC(C)C2CN(Cc3ccc4c(c3)Nc3nccnc3S4)CC1C2CC(=O)O (centres unmarked) [Example 79] |  | 44 |  |  | 
O=C(O)CC1C2CCCCC1CN(Cc1ccc3c(c1)Nc1nccnc1S3)C2 (centres unmarked) [Example 80] |  |  |  | 4100 | 217 to 218
CC(C(=O)O)C1C2CCCC1CN(Cc1ccc3c(c1)Nc1nccnc1S3)C2 (centres unmarked) [Example 82] |  |  |  | 3400 | 
CC(C(=O)O)C1C2CCCC1CN(Cc1ccc3c(c1)Nc1nccnc1S3)C2 (centres unmarked) [Example 83] | 2800 | 34 |  |  | 
O=C(O)CC1C2CN(Cc3ccc4c(c3)Nc3nccnc3S4)CC1C21CCC1 (centres unmarked) [Example 85] |  |  |  | 6400 | 175 to 180
O=C(O)CC1C2CC(c3ccccc3)CC1CN(Cc1ccc3c(c1)Nc1nccnc1S3)C2 (centres unmarked) [Example 87] |  |  |  | 2900 | 128 to 131
CC1C(C)C2CN(Cc3ccc4c(c3)Nc3nccnc3S4)CC1C2CC(=O)O (centres unmarked) [Example 89] |  | 83 |  | 2800 | 
O=C(O)C12CCCC(CN(Cc3ccc4c(c3)Nc3nccnc3S4)C1)C2 (centres unmarked) [Example 90] |  |  |  | 2800 | 186 to 188
CC1CCC2CN(Cc3ccc4c(c3)Nc3nccnc3S4)CC1C2CC(=O)O (centres unmarked) [Example 91] |  | 76 |  | 2900 | 
O=C(O)C1CC2CC(C1)CN(Cc1ccc3c(c1)Nc1nccnc1S3)C2 (centres unmarked) [Example 98] |  | 30 |  | 2400 | 

SMILES | IC50 (ICAM-1; 4 hours) [nM] | inhibition in vivo at 10 mg/kg [1] [%] | Inhibitory ratio (%) [1] [%] | IC50 (ICAM-1; [2]) [nM] | melting point [°C]
CC(CCC1C2CN(Cc3ccc4c(c3)Nc3nccnc3S4)CC1C(C)CC2C)C(=O)O (centres unmarked) [Example 100] |  |  |  | 3800 | 110 to 115
CC1CC(C)C2CN(Cc3ccc4c(c3)Nc3nccnc3S4)CC1C2CCC(=O)O (centres unmarked) [Example 101] |  | 48 |  | 2600 | 
CC1CC(C)C2CN(Cc3ccc4c(c3)Nc3nccnc3S4)CC1C2CCCC(=O)O (centres unmarked) [Example 102] |  |  |  | 2600 | 98 to 105
COC1(CC(=O)O)C2CCCC1CN(Cc1ccc3c(c1)Nc1nccnc1S3)C2 (centres unmarked) [Example 103] |  |  |  | 6600 | 217 to 219
O=C(O)CC12CCCC(CN(Cc3ccc4c(c3)Nc3nccnc3S4)C1)C2 (centres unmarked) [Example 104] |  |  |  | 2800 | 215 to 217
COC1(CC(=O)O)C2CCCC1CN(Cc1ccc3c(c1)Nc1nccnc1S3)C2 (centres unmarked) [Example 105] | 5800 |  |  |  | 225 to 228
O=C(O)C1CC2CC3CN(Cc4ccc5c(c4)Nc4nccnc4S5)CC(C2)C31 (centres unmarked) [Example 106] |  | 46 |  | 2800 | 
CC1(C(=O)O)C2CCCC1CN(Cc1ccc3c(c1)Nc1nccnc1S3)C2 (centres unmarked) [Example 113] |  |  |  | 2500 | 264 to 265
O=C(O)C=C1CC2CCC(C1)N2Cc1ccc2c(c1)Nc1nccnc1S2 [Example 118] |  |  |  | 1600 | 206 to 208
O=C(O)c1ccc(OCCC2C3CCCC2CN(Cc2ccc4c(c2)Nc2nccnc2S4)C3)cc1 (centres unmarked) [Example 121] |  | 70 |  | 7400 | 
CS(=O)(=O)NC1CCN(Cc2ccc3c(c2)Nc2nccnc2S3)CC1 [Example 402] |  | 57 |  | 320 | 
CNS(=O)(=O)NC1CCN(Cc2ccc3c(c2)Nc2nccnc2S3)CC1 [Example 403] |  | 35 |  | 340 | 
CN(C)S(=O)(=O)NC1CCN(Cc2ccc3c(c2)Nc2nccnc2S3)CC1 [Example 460] |  | 57 |  | 320 | 
O=C(O)Cc1ccc(C2CCN(Cc3ccc4c(c3)Nc3nccnc3S4)CC2)cc1 [Example 659] |  | 20 |  | 710 | 
O=C(O)CC1CC2(CCN(Cc3ccc4c(c3)Nc3nccnc3S4)CC2)C1 [Example 677] |  | 76 |  | 900 | 
O=C(O)C1CC2(CCN(Cc3ccc4c(c3)Nc3nccnc3S4)CC2)C1 [Example 686] |  | 71 |  | 900 | 
O=C(O)C1(C2CCN(Cc3ccc4c(c3)Nc3nccnc3S4)CC2)CC1 [Example 698] |  | 26 |  | 490 | 
O=C(O)CC1CCC2CN(Cc3ccc4c(c3)Nc3nccnc3S4)CC2C1 (centres unmarked) [Example 717] |  | 32 |  | 1150 | 
CC(CCC1CCN(Cc2ccc3c(c2)Nc2nccnc2S3)CC1)C(=O)O (centres unmarked) [Example 729] |  | 64 |  | 1300 | 
CNc1ncnc2c1ncn2Cc1ccc2c(c1)Nc1nccnc1S2 [Example 1409] |  |  |  | 670 | 279 to 281
